Results from ChEMBL document CHEMBL3045434, “Synthesis, characterization, and biological evaluation of novel thiazole and pyrazole derivatives of quinoline-4-carboxylic acid as potential antimicrobial agents” (2013).
≈ marks a conversion by molar mass, not a printed value.

Experiments:
Format in all cases: functional
Candida albicans [1] = experiment: Antifungal activity against Candida albicans ATCC 24433 by two-fold serial dilution method
Candida albicans [2] = experiment: Antifungal activity against Candida albicans ATCC 24433 by disk diffusion method
Pseudomonas aeruginosa [3] = experiment: Antibacterial activity against Pseudomonas aeruginosa ATCC 25615 by two-fold serial dilution method
Staphylococcus aureus [4] = experiment: Antibacterial activity against Staphylococcus aureus ATCC 9144 by disk diffusion method
Pseudomonas aeruginosa [5] = experiment: Antibacterial activity against Pseudomonas aeruginosa ATCC 25615 by disc diffusion method
Staphylococcus aureus [6] = experiment: Antibacterial activity against Staphylococcus aureus ATCC 9144 by two-fold serial dilution method
Aspergillus fumigatus [7] = experiment: Antifungal activity against Aspergillus fumigatus MTCC 343 by two-fold serial dilution method
Aspergillus fumigatus [8] = experiment: Antifungal activity against Aspergillus fumigatus MTCC 343 by disk diffusion method
Escherichia coli [9] = experiment: Antibacterial activity against Escherichia coli MTCC 739 by disc diffusion method
Bacillus subtilis [10] = experiment: Antibacterial activity against Bacillus subtilis ATCC 6633 by disk diffusion method
Aspergillus niger [11] = experiment: Antifungal activity against Aspergillus niger MTCC 872 by disc diffusion method
Escherichia coli [12] = experiment: Antibacterial activity against Escherichia coli MTCC 739 by two-fold serial dilution method
Bacillus subtilis [13] = experiment: Antibacterial activity against Bacillus subtilis ATCC 6633 by two-fold serial dilution method
Aspergillus niger [14] = experiment: Antifungal activity against Aspergillus niger MTCC 872 by two-fold serial dilution method

| Compound | MIC (Candida albicans [1]) [µg/mL] | diameter of the inhibition zone (DIZ) (Candida albicans [2]) [mm] | MIC (Pseudomonas aeruginosa [3]) [µg/mL] | diameter of the inhibition zone (DIZ) (Staphylococcus aureus [4]) [mm] | diameter of the inhibition zone (DIZ) (Pseudomonas aeruginosa [5]) [mm] | MIC (Staphylococcus aureus [6]) [µg/mL] | MIC (Aspergillus fumigatus [7]) [µg/mL] | diameter of the inhibition zone (DIZ) (Aspergillus fumigatus [8]) [mm] | diameter of the inhibition zone (DIZ) (Escherichia coli [9]) [mm] | diameter of the inhibition zone (DIZ) (Bacillus subtilis [10]) [mm] | diameter of the inhibition zone (DIZ) (Aspergillus niger [11]) [mm] | MIC (Escherichia coli [12]) [µg/mL] | MIC (Bacillus subtilis [13]) [µg/mL] | MIC (Aspergillus niger [14]) [µg/mL] | inhibition zone (IZ) (Staphylococcus aureus [4]) [mm] | inhibition zone (IZ) (Pseudomonas aeruginosa [5]) [mm] | inhibition zone (IZ) (Escherichia coli [9]) [mm] | inhibition zone (IZ) (Bacillus subtilis [10]) [mm] | inhibition zone (IZ) (Aspergillus niger [11]) [mm] |
| --- | --- | --- | --- | --- | --- | --- | --- | --- | --- | --- | --- | --- | --- | --- | --- | --- | --- | --- | --- |
| Cc1ccc(-c2nc3ccccc3c3c2c(-c2ccccc2)c(-c2ccccc2)n2c(=S)[nH]nc32)cc1 | > 100 | 6 | > 100 | 6 | 6 | > 100 | > 100 | 6 | 6 | 19 | 7 | > 100 | 25 (≈ 50.5 µM) | > 100 | – | – | – | – | – |
| GENTAMICIN | – | – | – | – | – | 6.25 | – | – | – | – | – | 25 | – | – | 22 | 23 | 20 | 22 | 18 |
| Cc1ccc(-c2cc(C(=O)O)c3ccccc3[n+]2C/C(=N/N=C2/N=C(c3ccccc3)CS2)c2ccccc2)cc1.[I-] | 25 | 17 | > 100 | 14 | 8 | 25 | > 100 | 8 | 11 | 9 | 7 | > 100 | > 100 | > 100 | – | – | – | – | – |
| S=c1[nH]nc2c3c(c(-c4ccccc4)nc4ccccc43)c(-c3ccccc3)c(-c3ccccc3)n12 | > 100 | 8 | > 100 | 8 | 8 | > 100 | > 100 | 7 | 18 | 21 | 6 | 50 (≈ 104 µM) | 12.5 (≈ 26 µM) | > 100 | – | – | – | – | – |
| Cc1ccc(-c2cc(C(=O)O)c3ccccc3[n+]2C/C(=N/N=C2/N=C(c3ccc(N)cc3)CS2)c2ccccc2)cc1.[I-] | 3.12 | 40 | > 100 | 40 | 6 | 3.12 | > 50 | 10 | 6 | 6 | 8 | > 100 | > 100 | > 100 | – | – | – | – | – |
| O=C(O)c1cc(-c2ccc(Cl)cc2)[n+](C/C(=N/N=C2/N=C(c3ccccc3)CS2)c2ccccc2)c2ccccc12.[I-] | 12.5 | 19 | > 100 | 15 | 6 | 25 | > 100 | 6 | 6 | 6 | 6 | > 100 | > 100 | > 100 | – | – | – | – | – |
| Cc1ccc(-c2nc3ccccc3c3c2c(-c2ccccc2)c(-c2ccccc2)n2c(=O)[nH]nc32)cc1 | 50 (≈ 104 µM) | 14 | > 100 | 11 | 9 | 50 (≈ 104 µM) | > 100 | 9 | 6 | 18 | 6 | > 100 | 50 (≈ 104 µM) | > 100 | – | – | – | – | – |
| O=c1[nH]nc2c3c(c(-c4ccccc4)nc4ccccc43)c(-c3ccccc3)c(-c3ccccc3)n12 | > 100 | 6 | 50 (≈ 108 µM) | 8 | 12 | > 100 | 25 (≈ 53.8 µM) | 12 | 21 | 8 | 6 | 25 (≈ 53.8 µM) | > 100 | > 100 | – | – | – | – | – |
| Nc1ccc(C2=N/C(=N/N=C(/C[n+]3c(-c4ccccc4)cc(C(=O)O)c4ccccc43)c3ccccc3)SC2)cc1.[I-] | 3.12 | 36 | > 100 | 24 | 9 | 6.25 | > 100 | 6 | 8 | 9 | 7 | > 100 | > 100 | > 100 | – | – | – | – | – |
| Nc1ccc(C2=N/C(=N/N=C(/C[n+]3c(-c4ccc(Cl)cc4)cc(C(=O)O)c4ccccc43)c3ccccc3)SC2)cc1.[I-] | > 100 | 7 | > 100 | 34 | 8 | 3.12 | > 100 | 9 | 7 | 7 | 6 | > 100 | > 100 | > 100 | – | – | – | – | – |
| OC(Cn1cncn1)(Cn1cncn1)c1ccc(F)cc1F [FLUCONAZOLE] | 6.25 (≈ 20.4 µM) | 21 | – | – | – | – | – | – | – | – | – | – | – | – | – | – | – | – | – |
| S=c1[nH]nc2c3c(c(-c4ccc(Cl)cc4)nc4ccccc43)c(-c3ccccc3)c(-c3ccccc3)n12 | 25 (≈ 48.5 µM) | 18 | 50 (≈ 97.1 µM) | 20 | 13 | 12.5 (≈ 24.3 µM) | > 100 | 6 | 7 | 8 | 6 | > 100 | > 100 | > 100 | – | – | – | – | – |
| O=C(O)c1cc(-c2ccccc2)[n+](C/C(=N/N=C2/N=C(c3ccccc3)CS2)c2ccccc2)c2ccccc12.[I-] | > 50 | 10 | > 100 | 18 | 9 | 25 | 25 | 12 | 9 | 10 | 14 | > 100 | > 100 | 12.5 | – | – | – | – | – |
| O=c1[nH]nc2c3c(c(-c4ccc(Cl)cc4)nc4ccccc43)c(-c3ccccc3)c(-c3ccccc3)n12 | 12.5 (≈ 25.1 µM) | 24 | > 100 | 9 | 6 | > 100 | > 100 | 6 | 6 | 11 | 8 | > 100 | > 100 | > 100 | – | – | – | – | – |
